# Data published in article PMC6482847 (Molecular microbiology, 2019).
# Molecular target: T1, FtsZAT (Agrobacterium fabrum, UniProt A9CIB1)
# T1 sequence (A9CIB1 1-583): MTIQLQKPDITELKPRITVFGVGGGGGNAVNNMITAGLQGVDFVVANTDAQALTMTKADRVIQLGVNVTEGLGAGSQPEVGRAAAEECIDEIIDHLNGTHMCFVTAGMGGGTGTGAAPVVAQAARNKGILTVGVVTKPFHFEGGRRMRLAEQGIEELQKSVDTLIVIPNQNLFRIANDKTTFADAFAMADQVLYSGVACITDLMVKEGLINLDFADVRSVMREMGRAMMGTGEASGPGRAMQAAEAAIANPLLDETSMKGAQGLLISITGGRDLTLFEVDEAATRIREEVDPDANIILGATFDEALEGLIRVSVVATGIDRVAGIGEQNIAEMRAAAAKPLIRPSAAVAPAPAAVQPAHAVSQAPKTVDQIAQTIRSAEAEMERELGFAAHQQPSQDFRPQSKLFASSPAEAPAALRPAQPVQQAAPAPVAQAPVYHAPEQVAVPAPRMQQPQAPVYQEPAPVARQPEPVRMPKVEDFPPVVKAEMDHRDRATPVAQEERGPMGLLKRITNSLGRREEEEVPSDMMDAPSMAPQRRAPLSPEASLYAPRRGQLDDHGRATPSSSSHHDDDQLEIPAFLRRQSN
# Assay: GTPase assay, inorganic phosphate release
# Format: biochemical
# Settings: 2 mM GTP, 8 µM FtsZAT, 2.5 mM MgCl2, 50 mM HEPES-KOH pH 7.2, 50 mM KCl, 0.1 mM EDTA
compound,measurement,value
Nc1nc2c(ncn2[C@@H]2O[C@H](COP(=O)(O)OP(=O)(O)OP(=O)(O)O)[C@@H](O)[C@H]2O)c(=O)[nH]1 [GTP],"GTPase assay, inorganic phosphate release (colorimetric)",it rapidly releases inorganic phosphate suggesting that GTP is hydrolyzed
